This note sets out measurements from patent US12435061B2 (priority 2020, dated 2025).

Counter-ions that a name gives are not always drawn. Like-named read-outs stand apart in the source and are kept apart here.

For the assay, the target named is hTRPV3 (Homo sapiens (Human), UniProt Q8NET8). The assay can be described thus: Whole-cell patch clamp, hTRPV3 Phase 1 / Phase 2 currents. It counts as cell-based. In a few lines: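 Currents are activated by 20 μM 2-APB or by perfusate at 28 °C or warmer, in Ringer's solution, and quantified at ±80 mV.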
Background: In patch-clamp work, channel activity is measured electrically.

[1] abbreviates: Phase 1 current, human TRPV3, read-out: hTRPV3 (nM) Phase 1.
Where [2] appears, read: Phase 1 current, inward, whole-cell patch clamp, read-out: hTRPV3 Patch P1 Inwd.
Setting [3] is: Phase 2 current, human TRPV3, read-out: hTRPV3 (nM) Phase 2.
The mark [4] stands for this setting: Phase 2 current, inward, whole-cell patch clamp, read-out: hTRPV3 Patch P2 Inwd.

Sequence of hTRPV3 (Q8NET8 whole entry): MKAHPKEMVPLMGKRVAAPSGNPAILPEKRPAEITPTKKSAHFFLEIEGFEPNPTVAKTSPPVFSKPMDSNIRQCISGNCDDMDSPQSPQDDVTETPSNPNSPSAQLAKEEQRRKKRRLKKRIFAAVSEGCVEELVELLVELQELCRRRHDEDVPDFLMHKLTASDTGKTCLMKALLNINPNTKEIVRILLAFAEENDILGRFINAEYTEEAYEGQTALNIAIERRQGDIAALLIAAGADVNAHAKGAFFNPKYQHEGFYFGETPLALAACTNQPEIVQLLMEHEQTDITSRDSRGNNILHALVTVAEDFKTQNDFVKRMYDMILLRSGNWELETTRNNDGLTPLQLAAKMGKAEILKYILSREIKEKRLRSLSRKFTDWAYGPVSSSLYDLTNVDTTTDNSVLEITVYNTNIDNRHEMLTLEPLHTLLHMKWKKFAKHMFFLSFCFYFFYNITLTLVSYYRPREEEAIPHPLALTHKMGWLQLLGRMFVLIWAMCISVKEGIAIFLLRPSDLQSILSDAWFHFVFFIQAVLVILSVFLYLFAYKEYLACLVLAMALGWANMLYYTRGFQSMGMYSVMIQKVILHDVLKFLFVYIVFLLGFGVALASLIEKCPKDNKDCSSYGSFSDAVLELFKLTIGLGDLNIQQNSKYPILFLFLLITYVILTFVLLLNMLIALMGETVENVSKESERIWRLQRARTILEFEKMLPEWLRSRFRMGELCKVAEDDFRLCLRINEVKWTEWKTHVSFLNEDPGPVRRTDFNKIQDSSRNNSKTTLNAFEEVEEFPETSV

Take `CC(C)c1ccccc1Oc1ccc(C2CCN(C(=O)c3ccc(C(F)(F)F)cn3)C2)c(CO)c1` (stereo not shown) [Compound 2-21, (3-(2-(hydroxymethyl)-4-(2-isopropylphenoxy)phenyl)pyrrolidin-1-yl)(5-(trifluoromethyl)pyridin-2-yl)methanone]: the IC50 is 97.1 nM under setting [1] and 10 to 100 nM under setting [2].

`COC(=O)c1cc(-c2ccccc2C(C)C)ccc1C1CCN(C(=O)c2ccc(F)cn2)C1` (stereo not shown) [Compound 2-23]: the IC50 under setting [1] is 886 nM and the IC50 under setting [2] was 100 to 1000 nM.

`CCc1cncnc1Oc1ccc(C2CCN(C(=O)c3ccc(F)cn3)C2)c(CO)c1` (stereo not shown) [Compound 2-24, (3-(4-(5-ethylpyrimidin-4-yloxy)-2-(hydroxymethyl)phenyl)pyrrolidin-1-yl)(5-fluoropyridin-2-yl)methanone]: the IC50 was > 3200 nM under setting [1] and > 1000 nM under setting [2].

As for `CC(C)c1ccccc1Oc1ccc(C2CCN(C(=O)c3ncccc3Cl)C2)c(C(=O)O)c1` (stereo not shown) [Compound 2-25, 2-(1-(3-chloropicolinoyl)pyrrolidin-3-yl)-5-(2-isopropylphenoxy)benzoic acid], the IC50 under setting [1] was > 3200 nM and the IC50 under setting [2] was > 1000 nM.

For `CC(C)c1ccccc1Oc1ccc(C2CCN(C(=O)c3ccccn3)C2)c(C(N)=O)c1` (stereo not shown) [Compound 2-31, 5-(2-isopropylphenoxy)-2-(1-picolinoylpyrrolidin-3-yl)benzamide], the IC50 was 1370 nM under setting [1] and > 1000 nM under setting [2].

Take `CCc1ccccc1Oc1ccc(C2CCN(C(=O)c3ncccc3Cl)C2)c(C(N)=O)c1` (stereo not shown) [Compound 2-37, 2-(1-(3-chloropicolinoyl)pyrrolidin-3-yl)-5-(2-ethylphenoxy)benzamide]: the IC50 under setting [1] was ~2190 nM and the IC50 under setting [2] is > 1000 nM.

As for `CCc1ccccc1Oc1ccc(C2CCN(C(=O)c3ccccn3)C2)c(C(N)=O)c1` (stereo not shown) [Compound 2-38, 5-(2-ethylphenoxy)-2-(1-picolinoylpyrrolidin-3-yl)benzamide], the IC50 under setting [1] was 2820 nM and the IC50 under setting [2] is > 1000 nM.

Consider `CCc1ccccc1Oc1ccc(C2CCN(C(=O)c3ccc(Cl)cn3)C2)c(C(N)=O)c1` (stereo not shown) [Compound 2-39, 2-(1-(5-chloropicolinoyl)pyrrolidin-3-yl)-5-(2-ethylphenoxy)benzamide], for which the IC50 is 681 nM under setting [1] and 100 to 1000 nM under setting [2].

Turning to `CCc1ccccc1Oc1ccc(C2CCN(C(=O)c3cccc(C)n3)C2)c(C(N)=O)c1` (stereo not shown) [Compound 2-40, 5-(2-ethylphenoxy)-2-(1-(6-methylpicolinoyl)pyrrolidin-3-yl)benzamide], the IC50 reads like this: under setting [1], 4900 nM; under setting [2], > 1000 nM.

As to `CC(C)c1ccccc1-c1ccc(C2CCN(C(=O)c3ncccc3Cl)C2)c(C(N)=O)c1` (stereo not shown) [Compound 2-41], the IC50 is 575 nM under setting [1] and 100 to 1000 nM under setting [2].

With `CCc1cccnc1Oc1ccc(C2CCN(C(=O)c3ccc(F)cn3)C2)c(CO)c1` (stereo not shown) [Compound 2-44, (3-(4-(3-ethylpyridin-2-yloxy)-2-(hydroxymethyl)phenyl)pyrrolidin-1-yl)(5-fluoropyridin-2-yl)methanone], the IC50 is, setting by setting: under setting [1], > 3200 nM; under setting [2], > 1000 nM.

Take `CC(C)c1ccccc1-c1ccc(C2CCN(C(=O)c3ccccn3)C2)c(C(N)=O)c1` (stereo not shown) [Compound 2-45]: the IC50 by setting is: under setting [1], 929 nM; under setting [2], 100 to 1000 nM.

For `CC(C)c1ccccc1Oc1ccc(C2CCN(C(=O)c3ncccc3F)C2)c(C(N)=O)c1` (stereo not shown) [Compound 2-46, 2-(1-(3-fluoropicolinoyl)pyrrolidin-3-yl)-5-(2-isopropylphenoxy)benzamide], the IC50 was ~2250 nM under setting [1] and > 1000 nM under setting [2].

Take `CCc1ccccc1-c1ccc(C2CCN(C(=O)c3ncccc3F)C2)c(CO)c1` (stereo not shown) [Compound 2-54, (3-(2′-ethyl-3-(hydroxymethyl)biphenyl-4-yl)pyrrolidin-1-yl)(3-fluoropyridin-2-yl) methanone]: the IC50 is 91.3 nM under setting [1] and 10 to 100 nM under setting [2].

In the case of `O=C(c1ncccc1Cl)N1CCC(c2ccc(-c3ccccc3C3CC3)cc2CO)C1` (stereo not shown) [Compound 2-55, (3-chloropyridin-2-yl)(3-(2′-cyclopropyl-3-(hydroxymethyl)biphenyl-4-yl)pyrrolidin-1-yl)methanone], the IC50 runs as follows: under setting [1], 88.4 nM; under setting [2], 10 to 100 nM.

For the molecule `CCOc1ccccc1-c1ccc(C2CCN(C(=O)c3ccc(F)cn3)C2)c(CO)c1` (stereo not shown) [Compound 2-59, (3-(2′-ethoxy-3-(hydroxymethyl)biphenyl-4-yl)pyrrolidin-1-yl)(5-fluoropyridin-2-yl)methanone], the IC50 reads like this: under setting [1], 62.1 nM; under setting [2], 10 to 100 nM.

In the case of `O=C(c1cc(Cl)ccn1)N1CCC(c2ccc(-c3ccccc3C3CC3)cc2CO)C1` (stereo not shown) [Compound 2-60, (4-chloropyridin-2-yl)(3-(2′-cyclopropyl-3-(hydroxymethyl)biphenyl-4-yl)pyrrolidin-1-yl)methanone], the IC50 under setting [1] is 26.5 nM and the IC50 under setting [2] lay in the range of 10 to 100 nM.

In the case of `COCc1ccccc1-c1ccc(C2CCN(C(=O)c3ccc(F)cn3)C2)c(CO)c1` (stereo not shown) [Compound 2-61, (5-fluoropyridin-2-yl)(3-(3-(hydroxymethyl)-2′-(methoxymethyl)biphenyl-4-yl)pyrrolidin-1-yl)methanone], the IC50 runs as follows: under setting [1], 153 nM; under setting [2], 100 to 1000 nM.

In the case of `CCc1ccccc1-c1ccc(C2CCN(C(=O)c3cc(OC)ccn3)C2)c(CO)c1` (stereo not shown) [Compound 2-63, (3-(2′-ethyl-3-(hydroxymethyl)biphenyl-4-yl)pyrrolidin-1-yl)(4-methoxypyridin-2-yl)methanone], the IC50 was 235 nM under setting [1] and 100 to 1000 nM under setting [2].

Take `COCc1ccccc1-c1ccc(C2CCN(C(=O)c3ccc(Cl)cn3)C2)c(CO)c1` (stereo not shown) [Compound 2-65, (5-chloropyridin-2-yl)(3-(3-(hydroxymethyl)-2′-(methoxymethyl)biphenyl-4-yl)pyrrolidin-1-yl)methanone]: the IC50 was 97.7 nM under setting [1] and 10 to 100 nM under setting [2].

`CCc1nccnc1-c1ccc(C2CCN(C(=O)c3ccc(F)cn3)C2)c(CO)c1` (stereo not shown) [Compound 2-68, (3-(4-(3-ethylpyrazin-2-yl)-2-(hydroxymethyl)phenyl)pyrrolidin-1-yl)(5-fluoropyridin-2-yl)methanone]: the IC50 under setting [1] was > 3200 nM and the IC50 under setting [2] was > 1000 nM.

In the case of `CC(O)c1cc(F)ccc1-c1ccc(C2CCN(C(=O)c3ccc(F)cn3)C2)c(CO)c1` (stereo not shown) [Compound 2-70, (3-(4′-fluoro-2′-(1-hydroxyethyl)-3-(hydroxymethyl)biphenyl-4-yl)pyrrolidin-1-yl)(5-fluoropyridin-2-yl)methanone], the IC50 was 2330 nM under setting [1] and > 1000 nM under setting [2].

Regarding `CC(O)c1cc(F)ccc1-c1ccc(C2CCN(C(=O)c3ccc(Cl)cn3)C2)c(CO)c1` (stereo not shown) [Compound 2-71, (5-chloropyridin-2-yl)(3-(4′-fluoro-2′-(1-hydroxyethyl)-3-(hydroxymethyl)biphenyl-4-yl)pyrrolidin-1-yl)methanone], the IC50 is 860 nM under setting [1], 100 to 1000 nM under setting [2], 572 nM under setting [3] and 100 to 1000 nM under setting [4].

As to `O=C(c1ncccc1F)N1CCC(c2ccc(-c3ccccc3C3CC3)cc2CO)C1` (stereo not shown) [Compound 2-74], the IC50 is 90.5 nM under setting [1], 10 to 100 nM under setting [2], 54.6 nM under setting [3] and 10 to 100 nM under setting [4].

For the molecule `COc1ccnc(C(=O)N2CCC(c3ccc(-c4ccccc4C4CC4)cc3CO)C2)c1` (stereo not shown) [Compound 2-75, (3-(2′-cyclopropyl-3-(hydroxymethyl)biphenyl-4-yl)pyrrolidin-1-yl)(4-methoxypyridin-2-yl)methanone], the IC50 reads like this: under setting [1], 215 nM; under setting [2], 100 to 1000 nM.

For the molecule `COc1ccc(C(=O)N2CCC(c3ccc(-c4ccccc4C4CC4)cc3CO)C2)nc1` (stereo not shown) [Compound 2-76, (3-(2′-cyclopropyl-3-(hydroxymethyl)biphenyl-4-yl)pyrrolidin-1-yl)(5-methoxypyridin-2-yl)methanone], the IC50 was 71 nM under setting [1] and 10 to 100 nM under setting [2].

With `O=C(c1ccc(C(F)(F)F)cn1)N1CCC(c2ccc(-c3ccccc3)nc2CO)C1` (stereo not shown) [Compound 2-81], the IC50 reads like this: under setting [1], 268 nM; under setting [2], 100 to 1000 nM; under setting [3], 298 nM; under setting [4], 100 to 1000 nM.

As to `O=C(c1ccc(Cl)cn1)N1CCC(c2ccc(-c3ccccc3)nc2CO)C1` (stereo not shown) [Compound 2-82], the IC50 was 836 nM under setting [1] and 100 to 1000 nM under setting [2].

In the case of `Cc1ccccc1Oc1ccc(C2CCN(C(=O)c3ncccc3Cl)C2)c(CO)c1` (stereo not shown) [Compound 2-84, (3-chloropyridin-2-yl)(3-(2-(hydroxymethyl)-4-(o-tolyloxy)phenyl)pyrrolidin-1-yl)methanone], the IC50 under setting [1] was determined as 932 nM.

`O=C(c1ncccc1Cl)N1CCC(c2ccc(Oc3ccccc3)cc2CO)C1` (stereo not shown) [Compound 2-85, (3-chloropyridin-2-yl)(3-(2-(hydroxymethyl)-4-phenoxyphenyl)pyrrolidin-1-yl)methanone]: the IC50 under setting [1] was found to be 3310 nM.

With `CC(C)c1ccccc1Oc1ccc(C2CC(=O)N(Cc3ncccc3Cl)C2)c(CO)c1` (stereo not shown) [Compound 2-88, 1-((3-chloropyridin-2-yl)methyl)-4-(2-(hydroxymethyl)-4-(2-isopropylphenoxy)phenyl)pyrrolidin-2-one], the IC50 is, setting by setting: under setting [1], 169 nM; under setting [2], 100 to 1000 nM; under setting [3], 184 nM; under setting [4], 100 to 1000 nM.

As for `Cc1cccnc1CN1CCC(c2ccc(Oc3ccccc3C(C)C)cc2CO)C1` (stereo not shown) [Compound 2-89, (5-(2-isopropylphenoxy)-2-(1-((3-methylpyridin-2-yl)methyl)pyrrolidin-3-yl)phenyl)methanol hydrochloride], the IC50 is 1230 nM under setting [1] and > 1000 nM under setting [2].
